Assay results: patent US20120071469A1 (priority 2009, published 2012)
Structures can show the parent of a compound that is named as a salt.

Molecular target: α7-subtype of nicotinic receptors (Rattus norvegicus, UniProt Q05941)
Assay: biochemical
Format: binding

Sequence of α7-subtype of nicotinic receptors (Q05941 23-502): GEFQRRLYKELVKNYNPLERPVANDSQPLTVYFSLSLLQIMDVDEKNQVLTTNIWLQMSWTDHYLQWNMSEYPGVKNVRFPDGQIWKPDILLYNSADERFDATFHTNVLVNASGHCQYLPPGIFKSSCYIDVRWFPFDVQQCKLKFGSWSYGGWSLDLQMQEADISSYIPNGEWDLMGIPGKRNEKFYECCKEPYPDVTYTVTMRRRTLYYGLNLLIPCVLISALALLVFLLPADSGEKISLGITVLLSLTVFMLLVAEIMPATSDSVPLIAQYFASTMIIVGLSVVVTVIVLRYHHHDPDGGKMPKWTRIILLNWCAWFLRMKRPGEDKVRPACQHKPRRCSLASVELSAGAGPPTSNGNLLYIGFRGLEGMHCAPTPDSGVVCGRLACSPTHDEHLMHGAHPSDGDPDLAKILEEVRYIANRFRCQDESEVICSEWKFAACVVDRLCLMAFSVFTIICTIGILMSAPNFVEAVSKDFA

**Q.** For `c1cc2c(cc1-c1nnc(N3CCN4CCC3C4)o1)OCO2` (stereo not shown) [Compound I, 4-(5-Benzo[1,3]dioxol-5-yl-[1,3,4]oxadiazol-2-yl)-1,4-diaza-bicyclo[3.2.1]octane fumaric acid salt], which IC50 is on record?
**A.** The IC50 was under 100 nM.
